Source: patent US4591551A, “Radioenzymatic method for assaying normetanephrine and octopamine” (University of Southern California, priority 1984, dated 1986)

Columns and labels:
PNMT = experiment: Isomer preference of normetanephrine as substrate for PNMT; format: biochemical, bovine; conditions: vs dl-normetanephrine
Method: (§1) PNMT was partially purified from bovine adrenal medulla according to the method of Henry et al, supra. In accordance with that procedure, thirty-three grams of medullary tissue are dissected from 15 fresh bovine adrenals and homogenized in 280 ml of 1.19 percent KCl solution. The homogenate is centrifuged at 40,000 g for one hour and the supernatant is filtered and recentrifuged at 100,000 g for one hour. To 250 ml of the supernatant are added 5 ml of 0.05M sodium phosphate buffer, pH 7.5 and 44 gm of solid ammonium sulfate. Another 19.8 gm of ammonium sulfate per 100 ml are added. The supernatant is discarded and the precipitate resuspended in 100 ml of 55 percent saturated ammonium sulfate--0.0125M sodium phosphate. The solution is recentrifuged and for each 100 ml of supernatant, 17 gm of ammonium sulfate are added. After centrifugation, the precipitate is resuspended in 50 ml of 0.005M tris, pH 7.4, containing 0.1 mM dithiothreitol and dialyzed in four liters of the buffer with four changes in a 16 hour period. The dialyzed enzyme is then centrifuged at 40,000 g for 10 minutes and frozen in small aliquots.
1-Normetanephrine is the preferred isomer as a substrate for PNMT and yielded about 1.5 times the activity of dl-normetanephrine. Thus, 1-normetanephrine should be used for calibration.

[1] = biological target: T1, phenylethanolamine-N-methyl transferase (Bos taurus, UniProt P10938); experiment: Substrate specificity: cross reactivities of catecholamines and congeners in the radioenzymatic assay for plasma normetanephrine; format: biochemical, bovine; conditions: for % / Counts per Minute, Sample: 500 pg of amine added; for %: sample counts; for Counts per Minute, Sample: without normetanephrine internal standard, metanephrine band after TLC; for Percentage Interference: 500 pg of amine in assay for plasma normetanephrine; for Counts per Minute, Normetanephrine Standard: 500 pg of amine plus 250 pg of normetanephrine; for Normetanephrine: apparent normetanephrine from 500 pg of amine, calculated using 250 pg in the formula
T1 construct: PNMT was partially purified from bovine adrenal medulla; from tissue; host or cells: bovine adrenal medulla
T1 sequence (P10938 1-283): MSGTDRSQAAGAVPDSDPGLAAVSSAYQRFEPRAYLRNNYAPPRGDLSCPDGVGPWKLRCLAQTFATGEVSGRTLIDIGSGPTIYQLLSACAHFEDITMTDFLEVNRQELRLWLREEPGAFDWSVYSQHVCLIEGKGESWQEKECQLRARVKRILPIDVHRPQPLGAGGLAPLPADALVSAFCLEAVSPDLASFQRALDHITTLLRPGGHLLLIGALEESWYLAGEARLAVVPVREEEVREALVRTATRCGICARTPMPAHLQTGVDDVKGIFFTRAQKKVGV
Method: as §1
Duplicate aliquots (20-50 microliters) of the processed specimens were transferred to disposable culture tubes (13×100 mm); 10 ul of deionized water was added to one and the same volume of normetanephrine standard solution (100 pm) was added to the other. Two tubes of 50 microliters of 0.001N NCl were used for blanks instead of plasma for each assay run. The enzymatic reaction was initiated by the addition of a mixture of 10 ul each of 0.5M tris-HCl with 12.5 mM EDTA (pH 10.0), diluted tritiated […] (SAM-H^3 at 1.25 microCurie) and phenylethanolamine-N-methyl transferase prepared as above. The pH of the incubation mixture was 9.2. The incubation was carried out for sixty minutes at 37° C. and terminated by cooling in an ice bath and the addition of 100 ul of 0.5M borate buffer (pH 10.0) containing 5 micromole of metanephrine to facilitate the location of chromotography bands.
Radioactive products were extracted into 3 ml of toluene isoamyl-alcohol mixture (3:2) by agitation on a vortex mixer. The organic layer was separated by centrifugation, transferred to another set of tubes after quick freezing of the aqueous layer in a dry ice acetone bath and subsequently washed by 50 microliter of 0.5M borate buffer (pH 10.0) with similar procedures. Then the organic layer was transferred to a 15 ml centrifuge tube and the N-methylated products were back-extracted to 130 microliter of 0.1N acetic acid. After centrifugation, the organic layer was aspirated off and 100 microliter of the acetic acid phase was spotted on a silica gel plate with a multiple spotter. Thin layer chromatography was carried out in the chamber using as a developing solvent a mixture of tertiary amyl-alcohol, methylamine (40%), benzene (6:3:2, total 73.5 ml) for ninety minutes, in accordance with the procedure of Peuler and Johnson, supra. Then the plate was dried immediately. The metanephrine spot was marked under ultraviolet light, scraped off with a knife and transferred to a plastic vial containing 1 ml of 1N NH4 OH. Ten mls of ScintiVerse (obtained from the Fisher Scientific Co.) was added and the vial was left to stand for at least one hour prior to counting in a liquid scintillation counter. The plasma normetanephrine concentration was calculated from the radioactivity according to the formula given above.
Assays were conducted as in Example I using the solvent system of that example but in which the sample contained 250 pg of normetanephrine and in which there was added to the incubation mixture in individual tubes 10 microliters of the respective reagent listed in Table II.

[2] = format: physicochemical
Method: Blood specimens were collected into commercial vactainer tubes containing 15 milligrams EDTA for 10 ml of blood and placed on ice immediately. After centrifugation at 4° C., exactly 1 ml of plasma was transferred to a 10 ml test tube and kept in the freezer at -20° C. until the assay was performed. In this condition, plasma normetanephrine is stable for at least 2 months.

[3] = biological target: T1, phenylethanolamine-N-methyl transferase; experiment: Radioenzymatic assay of octopamine in urine (counted as synephrine); format: biochemical, bovine
Method: The procedure of Examples I and II can be repeated but with the addition of 100 pg of octopamine in place of the 100 pg of normetanephrine as an internal standard, and by the addition of 5 micromole of unlabeled synephrine in place of the 5 micromole of metanephrine to facilitate chromatography band location. The pH of the incubation mixture is 9.3. The solvent system used is chloroform-ethanol-methylamine (40%) 16:3:2. In this case, synephrine bands are scraped into the scintillation vial and their counts per minute determined to yield the amount of octopamine, as synephrine.
A linear relationship was shown when octopamine was added either to urine or to water at 3-500 pg. Similarly, a linear relation was observed when both the synephrine and dimethyloctopamine were counted together after thin layer chromatography. These findings indicate that methylation of synephrine is proportioned to the added amount of octopamine and therefore validates the measurement of octopamine with this assay. When the synephrine was recovered from thin layer chromatography, it yielded a lower blank and therefore increased sensitivity. […] An additional wash with borate buffer (pH 10) and the use of chloroform-ethanol-methylamine as developing solvents further reduced the blank to a mean value of 56±7 cpm (N=13). Two and one-half octopamine in urine yields about 120-140 cpm. […]

Row | counts yielded by octopamine in urine ([3]; One hundred pg of octopamine in urine) | counts yielded by octopamine in urine ([3]; Two and one-half octopamine in urine) | SMILES | activity as substrate for PNMT relative to dl-normetanephrine (PNMT) | % [1] [%] | Counts per Minute, Sample [1] [Counts per Minute] | Percentage Interference [1] [%] | Counts per Minute, Normetanephrine Standard [1] [Counts per Minute] | Normetanephrine [1] [pg] | plasma normetanephrine is stable [2]
1 | – | – | COc1cc([C@@H](O)CN)ccc1O [1-Normetanephrine] | about 1.5 times | – | – | – | – | – | –
2 | – | – | NCCc1ccc(O)c(O)c1 [Dopamine, dopamine] | – | 1.3 | 80 | 0 | 6130 | 0 | –
3 | – | – | CNC[C@H](O)c1ccc(O)c(O)c1 [Epinephrine, epinephrine] | – | 1.3 | 80 | 0 | 6124 | 0 | –
4 | – | – | CNCC(O)c1ccc(O)c(OC)c1 (stereo not drawn) [Metanephrine, metanephrine] | – | 2.9 | 180 | 0.7 | 6363 | 3.8 | –
5 | – | – | NC[C@H](O)c1ccc(O)c(O)c1 [Norepinephrine, norepinephrine] | – | 1.6 | 101 | 0.1 | 6020 | 0.6 | –
6 | – | – | COc1cc(C(O)CN)ccc1O (stereo not drawn) [Normetanephrine, normetanephrine] | – | – | – | – | – | – | at least 2 months
7 | 2,500-3,000 cpm | 120-140 cpm | NCC(O)c1ccc(O)cc1 (stereo not drawn) [Octopamine, octopamine] | – | 11.8 | 726 | 4.9 | 7261 | 24.5 | –
8 | – | – | CNCC(O)c1ccc(O)cc1 (stereo not drawn) [Synephrine, synephrine] | – | 4.2 | 262 | 1.5 | 6160 | 7.5 | –
9 | – | – | NCCc1ccc(O)cc1 [Tyramine, tyramine] | – | 1.3 | 81 | 0 | 6090 | 0 | –
